From patent US9593305B2, “Differentiation of pluripotent stem cells” (Janssen Biotech, Inc., priority 2008, dated 2017)

Test system: H1 human embryonic stem cells
Assay: Step-wise differentiation, RT-PCR of differentiation markers (Example 17, Table 15)
Format: cell-based
Procedure: Stock cultures of human embryonic stem cells (H1 human embryonic stem cell line) were maintained in an undifferentiated, pluripotent state on reduced growth factor […]™ (BD Biosciences; Cat #356231)-coated dishes in MEF conditioned medium supplemented with 8 ng/ml bFGF (PeproTech Inc.; Cat #100-18B) with passage on average every four days. Passage was performed by exposing cell cultures to a solution of 1 mg/ml dispase (Invitrogen; Cat #17105-041) for 5 to 7 minutes at 37° C. followed by rinsing the monolayer with MEF conditioned culture medium and gentle scraping to recover cell clusters. Clusters were centrifuged at low speed to collect a cell pellet and remove residual dispase. Cell clusters were split at a 1:3 or 1:4 ratio for routine maintenance culture or a 1:1 ratio for immediate assay. All human ES cell lines were maintained at passage numbers less than 50 and routinely evaluated for normal karyotype and absence of mycoplasma.
Cell clusters were evenly resuspended in MEF conditioned medium supplemented with 8 ng/ml bFGF and plated onto reduced growth factor […]™-coated 24-well, black wall culture plates (Arctic White; Cat #AWLS-303012) in volumes of 0.5 ml/well. Daily feeding was conducted by aspirating spent culture medium from each well and replacing with an equal volume of fresh medium. Plates were maintained at 37° C., 5% CO2 throughout assay.
The assay was initiated by aspirating the culture medium from each well and adding back an aliquot (0.5 ml) of test medium. Test conditions for the first step of differentiation were conducted over a three-day period, feeding daily by aspirating and replacing the medium from each well with fresh test medium. On the first day of assay, 100 ng/ml activin A (PeproTech; Cat #120-14) or 100 ng/ml GDF-8 (R&D Systems, Cat #788-G8) was added to respective assay wells where each growth factor was diluted into RPMI-1640 medium (Invitrogen; Cat #: 22400) with 2% Albumin Bovine Fraction V, Fatty Acid Free (FAF BSA) (MP Biomedicals, Inc; Cat #152401). In some samples, 20 ng/ml Wnt3a (R&D Systems; Cat #1324-WN/CF) was also included. On the second day of assay, 100 ng/mlactivin A or 100 ng/ml GDF-8 was diluted into RPMI-1640 medium supplemented with 2% FAF BSA, omitting Wnt3a from all samples. In some test samples using GDF-8, Wnt3a was replaced with a given concentration of small molecule compound, added only on the first day of definitive endoderm differentiation. […] At the conclusion of the first step of differentiation, cells from some wells were harvested for flow cytometry analysis to evaluate levels of CXCR4, a marker of definitive endoderm formation. Additional wells were harvested for RT-PCR analysis to measure other markers of differentiation.
At the conclusion of the first step of definitive endoderm differentiation, replicate sets of parallel wells from each treatment group were subjected to further step-wise differentiation. It is important to note that after the first differentiation step, all wells undergoing subsequent culture and differentiation received the same treatment. The protocol for this continuing differentiation is described below.
Step 2 of the differentiation protocol was carried out over two days. Cells were fed daily by aspirating the medium from each well and replacing with a fresh aliquot (0.5 ml) of DMEM:F12 medium (Invitrogen; Cat #11330-032) containing 2% FAF BSA, 50 ng/ml FGF7 (PeproTech; Cat #100-19), and 250 nM cyclopamine-KAAD (Calbiochem; Cat #239804).
Step 3 of the differentiation protocol was carried out over four days. […]

[1] = Step 5, cells harvested at end of step, treatment given during step one

For “GDF-8: growth factor GDF-8, also known as myostatin, member of the TGF-β family”, the “RT-PCR CT Values AFP” value (Step 1) was 40.0, the “RT-PCR CT Values CD9” value (Step 1) was 25.5 and the “RT-PCR CT Values CD99” value (Step 1) was 25.9. For the same substance, the “RT-PCR CT Values CDH” value (Step 1) was 22.3, the “RT-PCR CT Values CDH1” value (Step 1) was 25.2 and the “RT-PCR CT Values CDX2” value (Step 1) was 40.0. The “RT-PCR CT Values CER1” value (Step 1) was 20.1, the “RT-PCR CT Values CXCR4” value (Step 1) was 24.6 and the “RT-PCR CT Values FGF4” value (Step 1) was 34.9. The “RT-PCR CT Values FGF17” value (Step 1) was 22.1, the “RT-PCR CT Values FOXA2” value (Step 1) was 25.9 and the “RT-PCR CT Values GAPDH” value (Step 1) was 21.6. The “RT-PCR CT Values GATA4” value (Step 1) was 27.5, the “RT-PCR CT Values GATA6” value (Step 1) was 24.8 and the “RT-PCR CT Values GSC” value (Step 1) was 24.2. The “RT-PCR CT Values HLXB9” value (Step 1) was 25.3, the “RT-PCR CT Values KIT” value (Step 1) was 25.4 and the “RT-PCR CT Values MIXL1” value (Step 1) was 30.6. For the same substance, the “RT-PCR CT Values NANOG” value (Step 1) was 25.0, the “RT-PCR CT Values OTX2” value (Step 1) was 24.3 and the “RT-PCR CT Values POU5F1” value (Step 1) was 29.5. For the same substance, the “RT-PCR CT Values SOX7” value (Step 1) was 29.8, the “RT-PCR CT Values SOX17” value (Step 1) was 25.2 and the “RT-PCR CT Values T” value (Step 1) was 32.9. The “RT-PCR CT Values ALB” value (Step 3) was 28.7, the “RT-PCR CT Values AMY2A” value (Step 3) was 30.4 and the “RT-PCR CT Values ARX” value (Step 3) was 35.3. For the same substance, the “RT-PCR CT Values CDX2” value (Step 3) was 23.8, the “RT-PCR CT Values GAPDH” value (Step 3) was 18.0 and the “RT-PCR CT Values GCG” value (Step 3) was 40.0. The “RT-PCR CT Values HNF4A” value (Step 3) was 23.6, the “RT-PCR CT Values INS” value (Step 3) was 40.0 and the “RT-PCR CT Values ISL1” value (Step 3) was 28.5. For the same substance, the “RT-PCR CT Values MAFA” value (Step 3) was 33.6, the “RT-PCR CT Values MAFB” value (Step 3) was 27.2 and the “RT-PCR CT Values NEUROD1” value (Step 3) was 30.3. The “RT-PCR CT Values NEUROG3” value (Step 3) was 28.7, the “RT-PCR CT Values NKX2-2” value (Step 3) was 30.3 and the “RT-PCR CT Values NKX2-5” value (Step 3) was 34.4. The “RT-PCR CT Values NKX6-1” value (Step 3) was 35.0, the “RT-PCR CT Values PAX4” value (Step 3) was 32.4 and the “RT-PCR CT Values PAX6” value (Step 3) was 24.8. For the same substance, the “RT-PCR CT Values PDX1” value (Step 3) was 25.5, the “RT-PCR CT Values PECAM” value (Step 3) was 30.0 and the “RT-PCR CT Values POU3F4” value (Step 3) was 30.8. The “RT-PCR CT Values PTF1A” value (Step 3) was 34.2, the “RT-PCR CT Values SST” value (Step 3) was 29.5 and the “RT-PCR CT Values ZIC1” value (Step 3) was 26.1. For the same substance, the “RT-PCR CT Values ALB” value (Step 4) was 25.5, the “RT-PCR CT Values AMY2A” value (Step 4) was 29.1 and the “RT-PCR CT Values ARX” value (Step 4) was 29.8. For the same substance, the “RT-PCR CT Values CDX2” value (Step 4) was 24.6, the “RT-PCR CT Values GAPDH” value (Step 4) was 18.0 and the “RT-PCR CT Values GCG” value (Step 4) was 31.3. For the same substance, the “RT-PCR CT Values HNF4A” value (Step 4) was 23.8, the “RT-PCR CT Values INS” value (Step 4) was 30.9 and the “RT-PCR CT Values ISL1” value (Step 4) was 27.6. The “RT-PCR CT Values MAFA” value (Step 4) was 32.8, the “RT-PCR CT Values MAFB” value (Step 4) was 24.1 and the “RT-PCR CT Values NEUROD1” value (Step 4) was 29.2. For the same substance, the “RT-PCR CT Values NEUROG3” value (Step 4) was 28.7, the “RT-PCR CT Values NKX2-2” value (Step 4) was 29.0 and the “RT-PCR CT Values NKX2-5” value (Step 4) was 32.3. For the same substance, the “RT-PCR CT Values NKX6-1” value (Step 4) was 31.2, the “RT-PCR CT Values PAX4” value (Step 4) was 31.1 and the “RT-PCR CT Values PAX6” value (Step 4) was 27.9. The “RT-PCR CT Values PDX1” value (Step 4) was 26.5, the “RT-PCR CT Values PECAM” value (Step 4) was 29.4 and the “RT-PCR CT Values POU3F4” value (Step 4) was 29.4. The “RT-PCR CT Values PTF1A” value (Step 4) was 40.0, the “RT-PCR CT Values SST” value (Step 4) was 26.0 and the “RT-PCR CT Values ZIC1” value (Step 4) was 22.8. The “RT-PCR CT Values ALB” value (Step 5) was 20.5, the “RT-PCR CT Values AMY2A” value (Step 5) was 28.2 and the “RT-PCR CT Values ARX” value (Step 5) was 25.2. The “RT-PCR CT Values CDX2” value (Step 5) was 24.4, the “RT-PCR CT Values GAPDH” value (Step 5) was 17.4 and the “RT-PCR CT Values GCG” value (Step 5) was 18.1. The “RT-PCR CT Values HNF4A” value (Step 5) was 22.9, the “RT-PCR CT Values INS” value (Step 5) was 17.7 and the “RT-PCR CT Values ISL1” value (Step 5) was 24.3. For the same substance, the “RT-PCR CT Values MAFA” value (Step 5) was 31.8, the “RT-PCR CT Values MAFB” value (Step 5) was 23.3 and the “RT-PCR CT Values NEUROD1” value (Step 5) was 24.2. For the same substance, the “RT-PCR CT Values NEUROG3” value (Step 5) was 30.1, the “RT-PCR CT Values NKX2-2” value [1] was 25.9 CT and the “RT-PCR CT Values NKX2-5” value [1] was 31.4 CT. For the same substance, the “RT-PCR CT Values NKX6-1” value [1] was 26.6 CT, the “RT-PCR CT Values PAX4” value [1] was 29.4 CT and the “RT-PCR CT Values PAX6” value [1] was 26.6 CT. For the same substance, the “RT-PCR CT Values PDX1” value [1] was 25.6 CT, the “RT-PCR CT Values PECAM” value [1] was 29.7 CT and the “RT-PCR CT Values POU3F4” value [1] was 27.8 CT. For the same substance, the “RT-PCR CT Values PTF1A” value [1] was 29.5 CT, the “RT-PCR CT Values SST” value [1] was 21.1 CT and the “RT-PCR CT Values ZIC1” value [1] was 22.5 CT.
